Patent US20090062401A1, “DECALINE-DERIVED COMPOUNDS AS […] ACTIVE AGENTS” (UNIVERSITAT DORTMUND, priority 2004, published 2009)
pIC50: −log10 of the molar value. Like-named read-outs stand apart in the source and are kept apart here.

Experiments:
VHR = VHR (Homo sapiens, UniProt P51452); assay: VHR phosphatase inhibition, general phosphatase assay using para-nitrophenylphosphate; assay type: biochemical; settings: read-out: IC50 Target VHR
Description: (§1) Assays protocols for the other enzymes mentioned herein (MtPTPA, PP1, VHR, PTP1B) are disclosed in Schweizer R A S, Atanasov, G A, Frey B M, and Odermatt A, Mol. Cell. Endocrinol. 2003, 212, 41-49 and Barratte, B., Meijer L., Galaktionov K. & Beach D, Anticancer Res. 1992, 12, 873-880. For determination of the phosphatase activity, a general phosphatase assay using para-nitrophenylphosphate was applied.

PTP1B = target: T1, PTP1B (Homo sapiens, UniProt P18031); assay: PTP1B phosphatase inhibition, general phosphatase assay using para-nitrophenylphosphate; assay type: biochemical
T1 sequence (P18031 1-435): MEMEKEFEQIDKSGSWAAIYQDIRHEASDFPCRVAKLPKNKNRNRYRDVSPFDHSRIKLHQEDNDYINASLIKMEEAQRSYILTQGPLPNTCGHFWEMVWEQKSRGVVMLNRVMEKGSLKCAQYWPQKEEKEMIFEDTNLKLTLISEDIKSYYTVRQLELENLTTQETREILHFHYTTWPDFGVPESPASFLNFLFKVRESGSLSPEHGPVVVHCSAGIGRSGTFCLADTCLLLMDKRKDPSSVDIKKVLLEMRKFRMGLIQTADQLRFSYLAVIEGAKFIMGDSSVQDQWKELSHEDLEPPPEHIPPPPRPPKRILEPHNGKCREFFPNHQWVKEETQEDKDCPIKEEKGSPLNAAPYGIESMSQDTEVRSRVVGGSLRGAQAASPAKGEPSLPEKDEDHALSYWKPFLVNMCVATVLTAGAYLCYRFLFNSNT
Description: as §1

Cdc25A = target: T2, Cdc25A (Homo sapiens, UniProt P30304); assay: Cdc25A phosphatase inhibition; assay type: biochemical
T2 sequence (P30304 1-524): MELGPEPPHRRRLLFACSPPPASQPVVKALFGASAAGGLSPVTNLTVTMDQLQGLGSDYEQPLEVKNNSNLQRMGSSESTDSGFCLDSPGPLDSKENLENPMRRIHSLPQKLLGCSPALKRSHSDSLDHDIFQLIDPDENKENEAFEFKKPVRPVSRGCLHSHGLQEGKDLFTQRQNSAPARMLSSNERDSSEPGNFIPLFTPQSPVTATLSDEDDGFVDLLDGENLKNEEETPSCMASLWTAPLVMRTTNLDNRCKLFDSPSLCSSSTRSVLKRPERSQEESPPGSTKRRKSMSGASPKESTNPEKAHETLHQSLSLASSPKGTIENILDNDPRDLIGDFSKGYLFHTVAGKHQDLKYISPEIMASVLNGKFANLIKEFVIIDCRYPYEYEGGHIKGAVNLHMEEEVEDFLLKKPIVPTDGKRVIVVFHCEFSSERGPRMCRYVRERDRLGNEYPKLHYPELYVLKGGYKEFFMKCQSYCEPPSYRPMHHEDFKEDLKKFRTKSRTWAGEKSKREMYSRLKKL
Description: (§2) Assay protocols for Cdc25A, 11βHSD1, 11βHSD2, and AChE are described in detain in the publication of Koch M A, Wittenberg L O, Basu S, Jeyaraj D A, Gourzoulidou E, Reinecke K, Odermatt A, Waldmann H (Proc. Natl. Acad. Sci. U.S.A. 2004 Nov. 30; 101(48):16721-6) and in Koch M A et al., Proc. Natl. Acad. Sci. U.S.A. 2005 Nov. 29; 102 (48):17272-7.

PP1 = PP1 phosphatase inhibition, general phosphatase assay using para-nitrophenylphosphate; assay type: biochemical; settings: read-out: IC50 Target PP1
Description: as §1

MPTPA = MPTPA (Mycobacterium tuberculosis, UniProt P9WIA1); assay: MtPTPA phosphatase inhibition, general phosphatase assay using para-nitrophenylphosphate; assay type: biochemical
Description: as §1

11beta-HSD1 = 11beta-HSD1 (Homo sapiens, UniProt P28845); assay: biochemical; settings: read-out: IC50 Target 11beta-HSD1
Description: as §2

11beta-HSD2 = target: T3, 11beta-HSD2 (Homo sapiens, UniProt P80365); assay: 11beta-HSD2 inhibition; assay type: biochemical; settings: read-out: IC50 Target 11beta-HSD2
T3 sequence (P80365 1-405): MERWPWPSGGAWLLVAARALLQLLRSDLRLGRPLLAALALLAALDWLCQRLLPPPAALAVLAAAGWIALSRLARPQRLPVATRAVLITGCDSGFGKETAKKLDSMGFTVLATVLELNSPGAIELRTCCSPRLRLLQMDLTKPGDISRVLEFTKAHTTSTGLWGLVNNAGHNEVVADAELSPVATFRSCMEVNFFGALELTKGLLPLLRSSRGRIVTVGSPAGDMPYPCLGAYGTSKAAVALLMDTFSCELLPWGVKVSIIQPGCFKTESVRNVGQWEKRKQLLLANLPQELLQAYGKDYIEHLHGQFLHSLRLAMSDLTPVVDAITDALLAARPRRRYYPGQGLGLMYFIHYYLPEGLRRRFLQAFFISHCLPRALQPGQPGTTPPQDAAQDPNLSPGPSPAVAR
Description: as §2

AChE = AChE (Homo sapiens, UniProt P22303); assay: Acetylcholinesterase inhibition; assay type: biochemical
Description: as §2

Chain of MPTPA (P9WIA1 whole entry): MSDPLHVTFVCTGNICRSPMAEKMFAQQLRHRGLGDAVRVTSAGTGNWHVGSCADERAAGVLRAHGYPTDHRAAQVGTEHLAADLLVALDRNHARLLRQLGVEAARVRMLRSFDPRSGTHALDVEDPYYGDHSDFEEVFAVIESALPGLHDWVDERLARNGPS
Chain of 11beta-HSD1 (P28845 whole entry): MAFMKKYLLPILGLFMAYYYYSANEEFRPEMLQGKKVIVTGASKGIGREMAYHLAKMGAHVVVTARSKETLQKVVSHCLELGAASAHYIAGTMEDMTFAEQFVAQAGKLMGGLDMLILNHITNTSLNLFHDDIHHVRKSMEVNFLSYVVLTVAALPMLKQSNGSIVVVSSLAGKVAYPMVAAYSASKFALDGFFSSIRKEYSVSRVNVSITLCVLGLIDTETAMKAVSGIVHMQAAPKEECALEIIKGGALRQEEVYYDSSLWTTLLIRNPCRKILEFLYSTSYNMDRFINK
Chain of VHR (P51452 whole entry, species assumed): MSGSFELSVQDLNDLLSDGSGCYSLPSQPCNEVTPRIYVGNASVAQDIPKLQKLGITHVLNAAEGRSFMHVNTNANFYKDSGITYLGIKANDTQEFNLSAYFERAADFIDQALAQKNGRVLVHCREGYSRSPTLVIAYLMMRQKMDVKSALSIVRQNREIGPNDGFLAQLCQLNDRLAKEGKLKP
Chain of AChE (P22303 32-614): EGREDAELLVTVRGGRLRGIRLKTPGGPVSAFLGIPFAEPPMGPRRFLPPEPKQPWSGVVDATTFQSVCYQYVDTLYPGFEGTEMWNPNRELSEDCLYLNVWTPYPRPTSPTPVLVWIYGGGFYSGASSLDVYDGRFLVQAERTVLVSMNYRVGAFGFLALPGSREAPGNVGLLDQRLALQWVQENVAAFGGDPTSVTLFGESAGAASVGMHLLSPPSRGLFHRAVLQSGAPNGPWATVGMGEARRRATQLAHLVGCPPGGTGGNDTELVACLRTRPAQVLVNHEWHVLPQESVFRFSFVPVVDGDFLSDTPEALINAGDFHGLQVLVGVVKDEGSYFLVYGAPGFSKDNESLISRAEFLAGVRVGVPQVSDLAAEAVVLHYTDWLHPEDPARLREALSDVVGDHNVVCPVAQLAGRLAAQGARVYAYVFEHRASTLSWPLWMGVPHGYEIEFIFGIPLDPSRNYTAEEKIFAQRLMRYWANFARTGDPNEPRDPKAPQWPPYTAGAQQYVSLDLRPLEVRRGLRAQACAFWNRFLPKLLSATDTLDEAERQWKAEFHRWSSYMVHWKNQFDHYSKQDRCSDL

Compound | pIC50 (VHR) | pIC50 (PTP1B; read-out: IC50 Target PTP1B) | pIC50 (Cdc25A; read-out: IC50 Target Cdc25A) | pIC50 (PP1) | pIC50 (11beta-HSD1) | further results
CCC/C=C1\C[C@@]2(C)C(=C(C)C1=O)CCC[C@@H]2O [Compound 32, (3E,4aS,5S)-3-Butyliden-4,4a,5,6,7,8-hexahydro-5-hydroxy-1,4a-dimethylnaphthalen-2(3H)-one] | > 5.00 | 4.30 to 5.00 | 4.30 to 5.00 | 4.30 to 5.00 | > 5.00 | pIC50 (MPTPA): > 5.00; pIC50 (11beta-HSD2): > 5.00; pIC50 (AChE): > 5.00
O=C1C(=Cc2ccco2)CCC2CC=CCC12 (stereo not shown) [Compound 403, 2-Furan-2-ylmethylene-3,4,4a,5,8,8a-hexahydro-2H-naphthalen-1-one] | – | – | – | – | > 5.00 | pIC50 (11beta-HSD2): > 5.00
CC1=C2CCC[C@H](O)[C@@]2(C)C/C(=C\c2ccc(C#C[Si](C)(C)C)cc2)C1=O [Compound 53, (3E,4aS,5S)-3-{4-[2-(Trimethylsilyl)ethinyl]benzyliden}-4,4a,5,6,7,8-hexahydro-5-hydroxy-1,4a-dimethylnaphthalen-2(3H)-on] | – | – | – | 4.30 to 5.00 | – | pIC50 (PTP1B): 4.30 to 5.00; pIC50 (Cdc25A): 4.30 to 5.00
COc1ccc(/C=C2\C[C@@]3(C)C(=C(C)C2=O)CCC[C@@H]3O)cc1 [Compound 24, (3E,4aS,5S)-3-(4-Methoxybenzyliden)-4,4a,5,6,7,8-hexahydro-5-hydroxy-1,4a-dimethylnaphthalen-2(3H)-on] | 4.30 to 5.00 | 4.30 to 5.00 | 4.30 to 5.00 | – | > 5.00 | pIC50 (MPTPA): 4.30 to 5.00
CC1=C2CCC[C@H](O)[C@@]2(C)C/C(=C\c2cc3ccccc3o2)C1=O [Compound 4, (3E,4aS,5S)-3-[(Benzofuran-2-yl)methylen]-4,4a,5,6,7,8-hexahydro-5-hydroxy-1,4a-dimethyl-naphthalen-2(3H)-one] | – | 4.30 to 5.00 | 4.30 to 5.00 | 4.30 to 5.00 | > 5.00 | –
CC1=C2CCC[C@H](O)[C@@]2(C)C/C(=C\c2ccc([N+](=O)[O-])cc2)C1=O [Compound 17, (3E,4aS,5S)-3-(4-Nitrobenzyliden)-4,4a,5,6,7,8-hexahydro-5-hydroxy-1,4a-dimethylnaphthalen-2(3H)-one] | – | 4.30 to 5.00 | – | 4.30 to 5.00 | – | –
C/C=C/C=C1\C[C@@]2(C)C(=C(C)C1=O)CCC[C@@H]2O [Compound 29, (3E,4aS,5S)-3-[(E)-But-2-enyliden]-4,4a,5,6,7,8-hexahydro-5-hydroxy-1,4a-dimethylnaphthalen-2(3H)-one] | – | > 5.00 | 4.30 to 5.00 | – | > 5.00 | pIC50 (11beta-HSD2): > 5.00; pIC50 (AChE): > 5.00
CC1=C2CCCC(O)C2(C)CC(=Cc2ccc(C#CCCCC#N)cc2)C1=O [Compound 47, 6-{4-{(1E)-[(43,4aS)-1,2,3,4,4a,5-Hexahydro-4-hydroxy-4a,8-dimethyl-7-oxonaphthalen-6(7H)-yliden]-methyl}phenyl}hex-5-in-nitril] | 4.30 to 5.00 | 4.30 to 5.00 | 4.30 to 5.00 | > 5.00 | – | –
CC1=C2CC/C(=C\c3ccco3)C(=O)[C@@]2(C)CCC1O (stereo partly drawn) [Compound 25, (2E,8aS)-2-[(Furan-2-yl)methylen]-3,4,6,7,8,8a-hexahydro-6-hydroxy-5,8a-dimethylnaphthalen-1(2H)-one] | 4.30 to 5.00 | – | – | 4.30 to 5.00 | – | pIC50 (MPTPA; read-out: IC50 Target MPTPA): 4.30 to 5.00
CC(=O)Oc1cccc(/C=C2\C[C@@]3(C)C(=C(C)C2=O)CCC[C@@H]3O)c1 [Compound 26, 3-{(1E)-[(4S,4aS)-1,2,3,4,4a,5-Hexahydro-4-hydroxy-4a,8-dimethyl-7-oxonaphthalen-6(7H)-yliden]methyl}phenylacetat] | 4.30 to 5.00 | 4.30 to 5.00 | – | 4.30 to 5.00 | > 5.00 | –
CC1=C2CCC[C@H](O)[C@@]2(C)C/C(=C\c2cc(Cl)cs2)C1=O [Compound 12, (3E,4aS,5S)-3-[(4-Chlorthiophen-2-yl)methylen]-4,4a,5,6,7,8-hexahydro-5-hydroxy-1,4a-dimethylnaphthalen-2(3H)-one] | – | 4.30 to 5.00 | – | 4.30 to 5.00 | > 5.00 | –
CC1(CCCc2ccccc2)C(=O)CC[C@@]2(C)C1CCC[C@@H]2O (stereo partly drawn) [Compound 397, (4aS,5S)-5-Hydroxy-1,4a-dimethyl-1-(3-phenyl-propyl)-octahydro-naphthalen-2-one] | 4.30 to 5.00 | – | 4.30 to 5.00 | 4.30 to 5.00 | – | –
CCc1cc(OC)ccc1/C=C1\C[C@@]2(C)C(=C(C)C1=O)CCC[C@@H]2O [Compound 15, (3E,4aS,5S)-3-(2-Ethyl-4-methoxybenzyliden)-4,4a,5,6,7,8-hexahydro-5-hydroxy-1,4a-dimethylnaphthalen-2(3H)-one] | – | – | – | – | > 5.00 | pIC50 (11beta-HSD2): 4.30 to 5.00
CC1=C2CCC[C@H](O)[C@@]2(C)C/C(=C\c2ccc(C#Cc3cccc(F)c3)cc2)C1=O [Compound 49, (3E,4aS,5S)-3-{4-[2-(3-Fluorphenyl)ethinyl]benzyliden}-4,4a,5,6,7,8-hexahydro-5-hydroxy-1,4a-dimethylnaphthalen-2(3H)-one] | 4.30 to 5.00 | – | > 5.00 | > 5.00 | – | –
CC(=O)Oc1ccc(/C=C2\C[C@@]3(C)C(=C(C)C2=O)CCC[C@@H]3O)cc1 [Compound 31, 4-{(1E)-[(4S,4aS)-1,2,3,4,4a,5-Hexahydro-4-hydroxy-4a,8-dimethyl-7-oxonaphthalen-6(7H)-yliden]methyl}phenylacetat] | – | 4.30 to 5.00 | – | – | > 5.00 | pIC50 (11beta-HSD2): 4.30 to 5.00; pIC50 (AChE; read-out: IC50 Target AChE): > 5.00
CCCCCCCCCCC#Cc1ccc(/C=C2\C[C@@]3(C)C(=C(C)C2=O)CCC[C@@H]3O)cc1 [Compound 45, (3E,4aS,5S)-3-[4-(Dodec-1-inyl)benzyliden]-4,4a,5,6,7,8-hexahydro-5-hydroxy-1,4a-dimethyl-naphthalen-2(3H)-on] | 4.30 to 5.00 | 4.30 to 5.00 | – | > 5.00 | – | –
CC1=C2CC(c3ccccc3)CC(O)C2CCC1=O (stereo not shown) [Compound 167, 5-Hydroxy-1-methyl-7-phenyl-4,4a,5,6,7,8,-hexahydro-3H-naphthalen-2-one] | – | – | – | – | – | pIC50 (AChE; read-out: IC50 Target AChE): > 5.00
CC1=C2CCC[C@H](O)[C@@]2(C)C/C(=C\c2ccc(C#CCCO)cc2)C1=O [Compound 55, (3E,4aS,5S)-3-[4-(4-Hydroxybut-1-inyl)benzyliden]-4,4a,5,6,7,8-hexahydro-5-hydroxy-1,4a-dimethylnaphthalen-2(3H)-one] | 4.30 to 5.00 | 4.30 to 5.00 | > 5.00 | – | – | pIC50 (MPTPA): 4.30 to 5.00
C/C=C1\CC[C@@]2(C)C(=C1C)CCC[C@@H]2O [Compound 411, (2E,4aS,5S)-6-Ethylidene-5,8a-dimethyl-1,2,3,4,6,7,8,8a-octahydro-naphthalen-1-ol] | – | – | – | 4.30 to 5.00 | – | –
